Measurements: patent US11932621B1, “2-[9-(2-hydroxypyridin-3-yl)-1,8-dioxo-1,2,3,4,5-6,7,8,9,10-decahydroacridin-10-yl]-acetate as an antimicrobial compound” (KING FAISAL UNIVERSITY, priority 2023, dated 2024)

Legend:
Type in all cases: cell-based
Conditions in all cases: after 10, 20, 40 and 60 minutes at all dilutions 1:100, 1:200, 1:400, 1:800
Candida albicans = assay: Antimicrobial screening by agar dilution, Candida albicans
Procedure: (§1) The antibacterial properties of the synthesized compound 2-[9-(2-hydroxypyridin-3-yl)-1,8-dioxo-1,2,3,4,5,-6,7,8,9,10-decahydroacridin-10-yl]-acetate were studied by the method of agar dilution. Test solutions of each compound was prepared in concentration of 1% using dimethylformamide as a solvent then they are diluted in physiological solution to obtain the final experimental dilutions 1:100, 1:200, 1:400, 1:800. The effect of these substances are compared with furacillin in a controllable study. The testing microbes used were gram positive bacteria Staphylococcus aureus, gram negative bacteria Pseudomonas aeruginosa and Escherichia coli and Candida albicans fungus. The experiments used for this survey were meat-pentonlu agar (EPA) for cultivation of bacteria and Saburo environment for the fungus. Each experiment used 1 mL of test solution on each plate […]. Two drops of emulsified with microbes feel were added. All experimental samples were taken from the agar after 10, 20, 40, 60 minutes in the environment on the basis of Patrk planted. The bacteria were cultivated at a temperature of 37° C. for 1 day and the mushroom was kept in a thermostat for […] at a temperature of 28° C. Then results were checked.

Escherichia coli = assay: Antimicrobial screening by agar dilution, Escherichia coli
Procedure: as §1

Staphylococcus aureus = assay: Antimicrobial screening by agar dilution, Staphylococcus aureus
Procedure: as §1

Pseudomonas aeruginosa = assay: Antimicrobial screening by agar dilution, Pseudomonas aeruginosa
Procedure: as §1

Measured: inhibition activity

CCOC(=O)CN1C2=C(C(=O)CCC2)C(c2cccnc2O)C2=C1CCCC2=O [2-[9-(2-hydroxypyridin-3-yl)-1,8-dioxo-1,2,3,4,5,-6,7,8,9,10-decahydroacridin-10-yl]-acetate]
highest inhibition activity: all assays above
